Reference: patent EP0121013A1, “Oral compositions” (UNILEVER PLC, priority 1983, dated 1984)

Tests used:
[1] = tested on: Streptococcus mutans OMZ-176; assay: Inhibition of bacterial growth (optical density after 24 hours); assay type: cell-based; settings: S.mutans OMZ-176; for IC50: 24 hours at 37°C, means of triplicate experiments, read-out: ID/50 (the source's name); for ID/50: recalculated as ppm F, 1440 min
Text: (§1) Cariogenic Bacteria used for testing the effect of Sn(^NH4)2F6 were Streptococcus mutans (strains coded 6715 and OMZ-176), Streptococcus sanguis (strains coded 10556 and 10557), Streptococcus salivarius (strains coded SS4 and H257), and Lactobacillus casei. All of the above organisms were maintained as lyophilised cultures until the time for use.
(§2) It is generally agreed that oral bacteria are responsible for tooth decay. Therefore, a reduction of the cariogenic flora usually results in a decrease in caries formation. The inhibitory action of the test compounds was. determined by adding each salt, at known concentrations, to a culture of cariogenic bacteria. After 24 hours at 37°C bacterial growth was monitored as a change in optical density. A dose response curve (concentration of salt vs. growth) for each compound against each bacterial isolate was plotted in order to obtain the concentration of test agent which would cause a 50% inhibition in growth (ID/50). This is a useful ranking index since it is not always possible to obtain complete inhibition with weak germicidal agents. Only those compounds which were able to elicit an ID/50 response were considered as inhibitory agents.
(§3) The medium used for bacterial growth experiments was Trypticase Soy Broth (B.B.L.: Baltimore Biological Labs., Baltimore, MD) supplemented with 0.1% Tween 80 (the word Tween is a trade mark) and 0.05% sodium thioglycollate. The test organisms, as lyophilised cells, were grown overnight in 50 mls of growth medium in a vacuum desiccator with an atmosphere of 97% CO /3% H2 at 35°C. These cultures were then used at a 0.2% inoculum to prepare second stage seed flasks. The test media (10ml) consisting of growth medium plus the potential inhibitors, contained in 16 x 120 mm screw top test tubes, were inoculated with the second stage seed cultures to given an absorbancy reading of 0.05. Immediately after inoculation the cultures were incubated for 24 hours under anaerobic conditions.
(§4) The growth medium was sterilised by autoclaving, whereas the potential inhibitors (as aqueous solutions) were sterilised by filtering each solution separately through a Millipore membrane (0.22 /u).
(§5) Absorbance at 600 nm versus a medium control was used as a measure of growth on a Beckman Model B spectrophotometer. All absorbancy readings were determined in 16 mm x 120 mm Kimax test tubes. This instrument was linear to 0.60 OD units; thus, all cultures displaying values above this range were diluted with the control, accordingly.

[2] = tested on: Streptococcus salivarius SS4; assay: as above; assay type: cell-based; settings: S.salivarius SS4; for IC50: 24 hours at 37°C, means of triplicate experiments, read-out: ID/50 (the source's name); for ID/50: recalculated as ppm F, 1440 min
Text: as §1, §2, §3, §4, §5

[3] = tested on: Streptococcus mutans 6715; assay: as above; assay type: cell-based; settings: S.mutans 6715; recalculated as ppm F; 1440 min
Text: as §1, §2, §3, §4, §5

[4] = tested on: Streptococcus sanguis 10556; assay: as above; assay type: cell-based; settings: S.sanguis 10556; for IC50: 24 hours at 37°C, means of triplicate experiments, read-out: ID/50 (the source's name); for ID/50: recalculated as ppm F, 1440 min
Text: as §1, §2, §3, §4, §5

Lactobacillus casei = assay: as above; assay type: cell-based; settings: L.casei; for IC50: 24 hours at 37°C, means of triplicate experiments, read-out: ID/50 (the source's name); for ID/50: recalculated as ppm F, 1440 min
Text: as §1, §2, §3, §4, §5

[5] = tested on: Streptococcus sanguis 10557; assay: as above; assay type: cell-based; settings: S.sanguis 10557; for IC50: 24 hours at 37°C, means of triplicate experiments, read-out: ID/50 (the source's name); for ID/50: recalculated as ppm F, 1440 min
Text: as §1, §2, §3, §4, §5

[6] = tested on: Streptococcus salivarius H257; assay: as above; assay type: cell-based; settings: S.salivarius H-257; for IC50: 24 hours at 37°C, means of triplicate experiments, read-out: ID/50 (the source's name); for ID/50: recalculated as ppm F, 1440 min
Text: as §1, §2, §3, §4, §5

[7] = Ionisation: release of available F; assay type: physicochemical
Text: The corresponding values for Na2SnF6 are 73% and 38%, respectively. Thus Na2SnF6 is less ionised than Sn(NH4)2F6.

pH of aqueous solution = assay type: physicochemical
Text: An aqueous solution of Sn(NH4)2F6 has a ^pH of about 3.8 as compared to a pH of 3.0 for SnF2. This higher pH characteristic eliminates some of the formulation problems encountered with the strong acid effect of SnF2. The preferred pH of oral compositions containing ^Sn(NH4)2F6 is from 3.5 to 8.0. A 1000 ppm F^- solution of Sn(NH4)2F6 was stable.

[8] = Stability of aqueous solution on standing (haze / turbidity); assay type: physicochemical; settings: 1000 ppm F- solution of Sn(NH4)2F6 on standing several weeks; SnF2 solution after 24 hours at room temperature
[9] = applied topically to the teeth; Caries Res. 3, 315-325, 1969; cited from earlier work
[10] = concentration equivalent to 1000 ppm
[11] = concentration equivalent to 2500 ppm

Compound `[F][Sn][F]` [SnF2] has an IC50 [1] of 2280 µM, an ID/50 [1] of 87 ppm F and an IC50 [2] of 2450 µM. The ID/50 [2] was 93 ppm F, the ID/50 [3] was 56 ppm F and the IC50 [4] was 440 µM. For the same compound, the ID/50 [4] was 17 ppm F, the IC50 (Lactobacillus casei) was 2970 µM and the ID/50 (Lactobacillus casei) was 113 ppm F. It also gave an IC50 [5] of 840 µM, an ID/50 [5] of 32 ppm F and an IC50 [6] of 740 µM. For the same compound, the ID/50 [6] was 29 ppm F, the “released available F” value [7, 10] was 80% and the “released available F” value [7, 11] was 45%. The pH (pH of aqueous solution) was 3.0 and the stability of solution [8] was “developed turbidity”.

Compound `N.N.[F-].[F-].[F-].[F-].[F-].[F-].[Sn]` [Sn(NH4)2F6, stannic ammonium fluoride] has an IC50 [1] of 1430 µM, an ID/50 [1] of 163 ppm F and an IC50 [2] of 1650 µM. It also gave an ID/50 [2] of 188 ppm F, an ID/50 [3] of 137 ppm F and an IC50 [4] of 220 µM. For the same compound, the ID/50 [4] was 25 ppm F, the IC50 (Lactobacillus casei) was 2530 µM and the ID/50 (Lactobacillus casei) was 288 ppm F. For the same compound, the IC50 [5] was 390 µM, the ID/50 [5] was 45 ppm F and the IC50 [6] was 400 µM. The ID/50 [6] was 46 ppm F, the “released available F” value [7, 10] was “the same ionisation values as SnF2” and the “released available F” value [7, 11] was “the same ionisation values as SnF2”. The pH (pH of aqueous solution) was “about 3.8” and the stability of solution [8] was “stable”.

In the case of `[Cl][Sn][Cl]` [SnCl2], the IC50 (Lactobacillus casei) is reported as 3000 to 6000 µM.

For `[F-].[F-].[F-].[F-].[F-].[F-].[Na+].[Na+].[Sn+4]` [Na2SnF6, sodium hexafluorostannate], the “released available F” value [7, 10] is listed as 73%, the “released available F” value [7, 11] is listed as 38% and the caries inhibiting effect [9] is listed as “has a caries inhibiting effect”.

In the case of `[F-].[Na+]` [NaF], the IC50 [1] is reported as 16300 µM, the ID/50 [1] is reported as 309 ppm F and the IC50 [2] is reported as 13400 µM. It also gave an ID/50 [2] of 255 ppm F, an ID/50 [3] of 138 ppm F and an IC50 [4] of 1180 µM. It also gave an ID/50 [4] of 22 ppm F, an IC50 (Lactobacillus casei) greater than 12000 µM and an ID/50 (Lactobacillus casei) of 352 ppm F. For the same compound, the IC50 [5] was 1820 µM, the ID/50 [5] was 35 ppm F and the IC50 [6] was 3770 µM. For the same compound, the ID/50 [6] was 72 ppm F.
